Assay results published in PMC5760633, “Determining direct binders of the Androgen Receptor using a high-throughput Cellular Thermal Shift Assay” (Scientific Reports, 2018).
Positions count from the first letter of the chain named. Read-outs that look alike come from different tables or passages of the source.

Experiments:
[1] = target: T1, Androgen Receptor (AR) (Homo sapiens, UniProt P10275, T878A); assay: CETSA HT ITDRF at 46 °C, agonist mode, LNCaP cells; format: binding
T1 construct: an alternative AR-positive prostate cancer cell line, LNCaP; endogenous in cells; host or cells: LNCaP
T1 sequence (P10275 1-920 T878A): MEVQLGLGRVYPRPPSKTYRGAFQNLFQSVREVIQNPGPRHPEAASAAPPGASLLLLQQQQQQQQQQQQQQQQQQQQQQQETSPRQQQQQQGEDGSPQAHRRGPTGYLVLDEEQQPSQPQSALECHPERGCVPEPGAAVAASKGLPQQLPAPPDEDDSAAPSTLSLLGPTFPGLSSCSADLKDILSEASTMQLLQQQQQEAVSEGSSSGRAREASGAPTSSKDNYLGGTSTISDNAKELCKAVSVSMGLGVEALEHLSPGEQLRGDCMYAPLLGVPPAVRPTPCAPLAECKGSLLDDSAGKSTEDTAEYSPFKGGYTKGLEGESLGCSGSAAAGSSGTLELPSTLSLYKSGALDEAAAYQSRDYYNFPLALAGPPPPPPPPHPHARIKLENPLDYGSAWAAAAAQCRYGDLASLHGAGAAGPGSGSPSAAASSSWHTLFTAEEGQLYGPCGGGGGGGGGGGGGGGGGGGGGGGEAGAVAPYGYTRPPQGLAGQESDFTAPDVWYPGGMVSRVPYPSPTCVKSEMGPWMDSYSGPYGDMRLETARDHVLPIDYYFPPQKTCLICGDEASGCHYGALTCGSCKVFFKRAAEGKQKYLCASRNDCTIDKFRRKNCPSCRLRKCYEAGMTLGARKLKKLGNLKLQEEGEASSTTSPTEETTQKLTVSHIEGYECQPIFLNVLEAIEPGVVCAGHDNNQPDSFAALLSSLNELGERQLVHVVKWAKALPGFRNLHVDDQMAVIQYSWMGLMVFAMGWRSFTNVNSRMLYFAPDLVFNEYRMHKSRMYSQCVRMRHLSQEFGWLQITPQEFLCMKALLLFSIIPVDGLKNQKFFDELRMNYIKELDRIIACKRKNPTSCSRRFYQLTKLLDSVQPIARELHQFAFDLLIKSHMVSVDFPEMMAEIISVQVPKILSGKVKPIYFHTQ

[2] = target: T2, Androgen Receptor (AR) (Homo sapiens, UniProt P10275, H875Y); assay: CETSA HT ITDRF at 46 °C, agonist mode (no exogenous DHT), CWR22Pc-R1-AD1 cells; format: binding; settings: for compound incubation time at which AR thermal stabilisation is seen: time-course
T2 construct: exclusively expresses a structurally full-length AR containing a H874Y mutation; endogenous in cells; host or cells: CWR22Pc-R1-AD1
T2 sequence (P10275 1-920 H875Y): T1 sequence (P10275 1-920 T878A) with H875Y, A878T

[3] = target: T2, Androgen Receptor (AR); assay: CETSA HT ITDRF at 46 °C, antagonist mode in the presence of 1 nM DHT, CWR22Pc-R1-AD1 cells; format: binding; settings: for AR target engagement (CETSA HT), 2 h, IC50: CWR22Pc-R1-AD1 cells, 46 °C heat shock; for IC50: one technical repeat, read-out: CETSA HT response pIC50 (converted)
Method: [sequence] experiments were performed in a plate-based, automation-compatible assay setup, as described in Supplementary Fig. S2e. […] Internal standard controls were included on each plate (Supplementary Fig. S10). […] 10 µL of cells were seeded per well of the PCR plate using a Multidrop Combi dispensor, covered with a plate lid, briefly centrifuged, and incubated under standard tissue culture conditions for 2 h or indicated timepoint. […] Cells were lysed by addition of 10 µL/well 2x SureFire Lysis Buffer using a Multidrop Combi. […] Antibody and AlphaScreen reagent, prepared as above, were added by Multidrop Combi (6 µL/well). Plates were incubated in the dark 16 h and analysed using an EnVision platereader.

[4] = tested on: AR-driven transcription (ARE-Luciferase); assay: AR-driven transcription ARE Luciferase reporter assay in CWR22Pc-R1-AD1 cells; format: cell-based, human;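 further: cells stably carrying an ARE-driven firefly luciferase reporter, with luminescence as read-out, tested in phenol red free RPMI containing 10% charcoal stripped FBS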
Method: 15 µL 2x Steady-Glo® reagent (Promega) was added per well and incubated 15 min in the dark before reading luminescence using an EnVision platereader. Experiments were performed in phenol red free RPMI media supplemented with 10% charcoal stripped FBS.

[5] = tested on: total cellular AR; assay: CETSA HT control without heat shock and without exogenous DHT (total AR); format: cell-based, human
[6] = tested on: AR-responsive transcript FKBP5; assay: AR functional RT-qPCR assay (FKBP5 transcript) in CWR22Pc-R1-AD1 cells; format: cell-based, human; settings: 48 h, 1 nM DHT
From the text: oxygen from the donor to the acceptor, exciting a fluorophore to emit light at 520-620 nm5.
Two primary anti-AR antibodies derived from mouse and rabbit were applied to bind AR simultaneously at separate epitopes. Secondary AlphaScreen® antibodies were combined with the primary antibodies in the form of AlphaScreen® donor beads functionalised with antibodies recognising mouse antibody IgG (PerkinElmer AS104D), and AlphaScreen® acceptor beads functionalised with antibodies recognising rabbit antibody IgG (PerkinElmer AL104C). […]
red free RPMI1640 media supplemented with 10% charcoal-stripped serum was used throughout. […] Media was removed using an ELX405 CW washer (BioTek) and 12 µL RealTime ready Cell Lysis Kit supplemented with RNAse inhibitor (Roche) was added per well. […] RealTime ready RNA Virus Master Mix (Roche) was prepared following manufacturer’s instructions, supplemented with primers and probes for FKBP5 (FAM, IDT Ref Seq # NM_001145776(3)) and β-Actin (VIC, IDT Ref Seq # NM_001101(1)). […] PCR plates were sealed and analysed using a LightCycer®II 480 (Roche). […] 40 PCR cycles were performed consisting of 30 sec at 95 °C, 20 sec at 60 °C, fluorescence acquisition, and 1 sec at 72 °C. Calculated Cq values were exported for analysis. […]

[7] = Supplementary Table S1, 2 h, 46 °C
[8] = Homo sapiens, 24 h; read-out: AR-driven transcription (ARE-Luciferase), 24 h, IC50
[9] = Homo sapiens, 24 h; read-out: ARE-Luciferase response pIC50 (converted)
[10] = Supplementary Table S1; 24 h, 1 nM DHT
[11] = 2 h compound incubation, no exogenous DHT, no 46 °C heat shock
[12] = CWR22Pc-R1-AD1 cells, 1 nM DHT, 24 h; read-out: AR-driven transcription (ARE-Luciferase), 24 h, IC50
[13] = Supplementary Table S1, 1 nM DHT, 2 h, 46 °C

C[C@]12CCC(=O)C=C1CC[C@@H]1[C@@H]2C(=O)C[C@]2(C)C(=O)CC[C@@H]12 [Andrenosterone]
EC50 ([1]; read-out: EC50 for AR thermal stabilisation (ITDRF CETSA), LNCaP cells, agonist alone): 70.1 nM | EC50 ([2]; agonist alone, read-out: EC50 for in-cell AR target engagement (ITDRF CETSA)): 50.6 nM | compound incubation time at which AR thermal stabilisation is seen [2]: at least 30 minutes | compound incubation time at which AR thermal stabilisation is seen ([2]; listed as andrenosterone): 30 min

CC(C)(O)C(=O)Nc1ccc([N+](=O)[O-])c(C(F)(F)F)c1 [Hydroxyflutamide]
AR thermal stabilisation / agonist binding mode by compound alone ([1]; LNCaP cells (AR T877A)): did not show any evidence of binding as an agonist | temporal analysis of target engagement (competition of DHT) ([3]; 1 nM DHT, incubation 10 minutes – 6 hours): increasing competition of DHT from AR over time | Conclusion: activity in CETSA HT [3, 7]: Active | IC50 [4, 8]: 135 nM | IC50 [4, 9]: 135 nM | Conclusion: activity in ARE-Luciferase assay [4, 10]: Active | effect on total AR (no heat shock) [5, 11]: do not reduce total AR | AR thermal stabilisation in time-course of compound incubation ([2]; 10 minutes up to 6 hours incubation): No thermal | AR thermal stabilisation / target engagement by compound alone ([2]; no exogenous agonist): did not thermally stabilise AR

N#Cc1cc2cc(CN3CCC(Nc4ncnc5sc(CC(F)(F)F)cc45)CC3)ccc2[nH]1 [MI-136]
IC50 [4, 12]: 7400 nM | Conclusion: activity in ARE-Luciferase assay [4, 10]: Active | reduction of AR-responsive transcript FKBP5 (RT-qPCR) [6]: confirmed

Cc1c(CN2CCC(Nc3ncnc4sc(CC(F)(F)F)cc34)CC2)ccc2c1cc(C#N)n2Cc1cn[nH]c1 [MI-503]
IC50 [4, 12]: 11000 nM | Conclusion: activity in ARE-Luciferase assay [4, 10]: Active | reduction of AR-responsive transcript FKBP5 (RT-qPCR) [6]: confirmed

C[C@](O)(COc1ccc(C#N)cc1)C(=O)Nc1ccc(C#N)c(C(F)(F)F)c1 [MK-2866]
Conclusion: activity in CETSA HT [3]: Active | temporal analysis of target engagement (competition of DHT) [3]: increasing competition of DHT from AR over time | IC50 ([4]; Homo sapiens, 24 h, read-out: AR-driven transcription (ARE-Luciferase), 24 h, IC50): 170 nM | IC50 ([4]; Homo sapiens, 24 h, read-out: ARE-Luciferase response pIC50 (converted)): 170 nM | effect on total AR (no heat shock) [5]: do not reduce total AR

CCNC(=O)c1noc(-c2cc(C(C)C)c(O)cc2O)c1-c1ccc(CN2CCOCC2)cc1 [NVP-AUY-922]
AR target engagement (CETSA HT), 2 h, IC50 ([3]; 1 nM DHT, 2 h): Reduces total AR | IC50 [3, 13]: 955 nM | Conclusion: activity in CETSA HT [3, 7]: Active | IC50 [4, 8]: 89 nM | IC50 [4, 9]: 89.1 nM | Conclusion: activity in ARE-Luciferase assay [4, 10]: Active | effect on total AR (no heat shock) [5, 11]: reduces total AR

CC(C)c1cc(C(=O)N2Cc3ccc(CN4CCN(C)CC4)cc3C2)c(O)cc1O [Onalespib]
AR target engagement (CETSA HT), 2 h, IC50 ([3]; 1 nM DHT, 2 h): Reduces total AR | IC50 [3, 13]: 1050 nM | Conclusion: activity in CETSA HT [3, 7]: Active | IC50 [4, 8]: 537 nM | IC50 [4, 9]: 537 nM | Conclusion: activity in ARE-Luciferase assay [4, 10]: Active | effect on total AR (no heat shock) [5, 11]: reduces total AR
